The results in this text go back to US20260043793A1, “MICROFLUIDIC CELL SPHEROIDS AND ORGANOIDS CULTURE INSERT FOR DISEASE MODELING AND SCREENING OF THERAPEUTICS” (APRICELL BIOTECHNOLOGY INC., priority 2022, published 2026).

Common to all, as to format: cell-based
For assay [1], the system named is TMZ non-resistant U251 cell spheroids or organoids. Put plainly: Growth and invasion of TMZ non-resistant U251 spheroids in Collagen/HA ECM conditioned with Reelin. As for the experimental part:
(§1) To investigate and compare the invasive behavior of TMZ resistant GBM cancer cells with non-resistant cell spheroids or organoids through the ECM hydrogel, we used TMZ resistant and non-resistant U251 cell lines to make cell spheroids or organoids in the device 10 or the sector 20. The method of U251 cell spheroids or organoid formation was similar to that disclosed above.
(§2) The effect of recombinant Reelin on viability of the U251 cell spheroids or organoids was studied. It was tested with 2 different concentrations of Reelin (1 and 100 nM) on cell spheroids or organoids in the device 10 or the sector 20. Moreover, to study the invasive behavior of the resistant and non-resistant cell spheroids or organoids, they were embedded in Collagen/HA hydrogel. The method of cell spheroids or organoid embedding in the hydrogel is similar to that disclosed in example 1. In this study, the effect of Reelin protein in combination with ECM hydrogel on invasiveness of the cell spheroids or organoids and their invasion length using Vimentin immunostaining and florescent microscopy respectively was studied.

In the next assay the test system is vimentin surface marker. In words: Vimentin immunostaining of U251 spheroids (resistant and non-resistant) in collagen/HA ECM. Particulars: 10 nm of Reelin, non-resistant in comparison to resistant spheroids. The source says:
The effect of recombinant Reelin on viability of the U251 cell spheroids or organoids was studied. […] Moreover, to study the invasive behavior of the resistant and non-resistant cell spheroids or organoids, they were embedded in Collagen/HA hydrogel. The method of cell spheroids or organoid embedding in the hydrogel is similar to that disclosed in example 1. In this study, the effect of Reelin protein in combination with ECM hydrogel on invasiveness of the cell spheroids or organoids and their invasion length using Vimentin immunostaining and florescent microscopy respectively was studied.
Level of surface vimentin expression of the tumor cells was measured as an indication of invasiveness of cell spheroids or organoids with the ECM matrix.

Assay [2] deals with TMZ resistant U251 cell spheroids or organoids. Put plainly: Growth and invasion of TMZ resistant U251 spheroids in Collagen/HA ECM conditioned with Reelin. The settings on record: for average invasion length: Collagen/HA matrix. Here is the method: as §1, §2
Assay [3] concerns U251 cell spheroids or organoids. In words: Effect of recombinant Reelin on viability of U251 spheroids (live-dead). Particulars: increasing Reelin concentration from 1 to 100 nM. As for the experimental part:
as §2
It is shown in live-dead fluorescent images by increasing the number of red cells stained with Propodeum iodide (PI) compared to the green cells stained with calcein AM after treatment with 100 nM Reelin.

The mark [4] stands for this setting: 10 nM Reelin, in response to TMZ.

Take “Reelin: recombinant Reelin protein used alone or in combination with ECM hydrogel”: in assay [1] (setting [4]), the “invasion length in Reelin treated matrix compared to normal ECM matrix” value is recorded as “higher invasion length”. For the same substance, the “size increase of spheroids over time (diameter)” value in assay [1] (each Reelin concentration, day 0 to 3, compared with resistant spheroids) is on record as “more significant”. The “growth of cell spheroids or organoids (diameter)” value in assay [1] (higher concentrations of Reelin, day 3) is recorded as “more inhibitory effect on the growth”. Moreover, the invasion length entry in assay [1] (increasing concentrations of Reelin, Collagen/HA matrix) is recorded as “constantly increasing”. Further, the “fluorescent intensity index of the vimentin surface marker” value in the assay with vimentin surface marker is “higher fluorescent intensity index”. Also, the average invasion length result in assay [2] (10 nM Reelin) was “around 400 μm”; in assay [2] (100 nM Reelin), “drops significantly”. Further, in assay [2] (setting [4]), the “invasion length in Reelin conditioned matrix compared to normal matrix” value is “reverse”. Besides, the “inhibitory effect on growth (diameter)” value in assay [2] (higher concentrations of Reelin, day 3, compared with non-resistant) is “less”. The cell viability result in assay [3] is “significant decrease in cell viability”.
